The assay concerns Xenopus oocytes. Put plainly: Osmotic water permeability (swelling) of control- or AQP1 RNA-injected Xenopus oocytes. Format: cell-based, Xenopus laevis. Particulars: control-injected oocytes (RNA None), 22° C. The method, then:
Expression of AOP1 in Xenopus oocytes. Oocytes were removed from female Xenopus laevis frogs and prepared as described by Dascal (CRC Crit. Rev. Biochem., 1987, 22:317-373). Oocytes were injected with 0.05 microliters of water (control) or the same volume of water containing 1-10 nanograms of AQP1 RNA. The oocytes were incubated for up to 96 hours at 18° C. in modified Barth's buffer (88 mM NaCl, 1 mM KCl, 0.8 mM MgSO4, 0.3 mM Ca(NO3) 2, 0.4 mM CaCl2, 2.4 mM NaHCO3, 10 mM HEPES, pH =7.4, total osmolality =200 mOsm/kg) also containing antibiotics. The whole oocytes were then removed and total cellular protein was dissolved in 40 microliters of buffer containing 1% (w/v) SDS and analyzed by immunoblot (Towbin et al., 1979, Proc. Natl. Acad. Sci. USA 76:4350-4354).
A swelling assay was adapted from that of published work (Fischbarg et al., 1990, Proc. Natl. Acad. Sci. USA 87:3244-3247; Zhang et al., 1990, J. Biol. Chem. 265:15375-15378). […] Swelling was monitored with a Nikon phase-contrast microscope equipped for videorecording. The longest (D1) and shortest (D2) diameters of the oocytes were measured at 15- to 30-second intervals. Oocyte volumes (V) at each time point were calculated relative to volume at the initial observation (V0): […]

`[Cl][Hg][Cl]` [HgCl2] displayed a Pf (HgCl2 0.3 (nM), ME 0) of 20.3 cm/s x 10^-4.

Compound `OCCS` [β-mercaptoethanol] showed a Pf of 25.4 cm/s x 10^-4.

Values taken from patent publication US5858702A, “Isolation, cloning and expression of transmembrane water channel Aquaporin 5 (AQP5)” (The Johns Hopkins University, priority 1995, dated 1999).
